Assay results published in patent US9561238B2, “Pharmaceutical compositions comprising estetrol derivatives for use in cancer therapy” (Donesta Bioscience B. V., priority 2002, dated 2017).

How the values were obtained:
[1] = tested on: DMH-induced malignant colon tumours; test: 1,2 dimethylhydrazine (DMH)-induced colon cancer in ovariectomized female rats; assay type: in vivo, rat; details: estetrol orally 0.1 to 3.0 mg/kg/day; necropsy 15 weeks after first DMH
Experimental: A study is performed to examine the effect of estetrol on 1,2 dimethylhydrazine (DMH)-induced colon cancer in ovariectomized female rats.
DMH-induced cancer development is chosen as a model of “estrogen-suppressed tumours”, because it mimics the human situation of colon carcinomas closely:
One week prior to induction of colon carcinomas, fifty sexually mature female Sprague-Dawley rats, weighing between 150 and 200 gram (Harlan, The Netherlands), are surgically castrated via removal of the ovaries. During the experiment, rats are maintained in separate plastic cages at 12 hour light/dark cycles and allowed free access to food (Purina chow) and water.
Animals are randomly allocated to one of five groups, each consisting of 10 rats, which, starting three days after ovariectomy and ending at autopsy, receive placebo or estetrol treatment during the experiment as follows: • Group 1 animals receiving placebo oral treatment with 3.0 ml/kg/day vehicle (20% wt/vol solution of hydroxypropyl-beta-cyclodextrin in water); • Group 2 animals receiving estetrol orally at a single daily dose of 0.1 mg/kg; • Group 3 animals receiving estetrol orally at a single daily dose of 0.3 mg/kg; • Group 4 animals receiving estetrol orally at a single daily dose of 1.0 mg/kg; • Group 5 animals receiving estetrol orally at a single daily dose of 3.0 mg/kg. […]

human ERα = human ERα (Homo sapiens (Human), UniProt P03372); test: Competitive steroid binding assay, ERα; details: preference for binding to ERα protein over ERβ, from Ki values
[2] = tested on: DMBA-induced mammary tumours; test: 7,12-dimethyl-benz(a)anthracene (DMBA)-induced tumour model in rats; assay type: in vivo, rat
Experimental: In order to further assess the anti-tumour efficacy of the estrogenic substances of the present invention, estetrol was tested in the 7,12-dimethyl-benz(a)anthracene (DMBA)-induced tumour model in rats. This model, originally developed by Huggins et al., 1961 (Nature, 19, 204-207), has been widely used and is a generally accepted model with predictive value for anti-tumour agents in humans.
Eighty-four female Sprague-Dawley rats (Harlan, The Netherlands) were group housed, maintained in a 12-hr light/dark environment, and fed a Soya Free Diet (SDS England) and water ad libitum. Animals were weighed on a weekly basis. One week prior to induction of mammary carcinoma, 12 animals (aged 43 days) were surgically castrated via removal of the ovaries. At the age of 50 days, all animals were administered a single oral dose of 16 mg DMBA to induce tumour development. […]
During the treatment period of 8 weeks, the emergence of palpable tumours and number of tumours were determined weekly. […]

[3] = Agonistic models of in vivo estrogenicity (bone resorption, hot flushing, vaginal cornification), previous studies; details: for in vivo estrogenicity in preventing bone resorption, prevention of hot flushing and vaginal cornification: 0.125 mg/kg/day EE compared with […] E4; for potency in agonistic models of preventing bone resorption, prevention of hot flushing and vaginal cornification: […] EE compared with 0.5 mg/kg/day E4
[4] = tested on: DMBA-induced mammary tumours; details: literature; cited from earlier work
[5] = tested on: DMH-induced malignant colon tumours; details: previously published; cited from earlier work

Chain of human ERα (P03372 whole entry): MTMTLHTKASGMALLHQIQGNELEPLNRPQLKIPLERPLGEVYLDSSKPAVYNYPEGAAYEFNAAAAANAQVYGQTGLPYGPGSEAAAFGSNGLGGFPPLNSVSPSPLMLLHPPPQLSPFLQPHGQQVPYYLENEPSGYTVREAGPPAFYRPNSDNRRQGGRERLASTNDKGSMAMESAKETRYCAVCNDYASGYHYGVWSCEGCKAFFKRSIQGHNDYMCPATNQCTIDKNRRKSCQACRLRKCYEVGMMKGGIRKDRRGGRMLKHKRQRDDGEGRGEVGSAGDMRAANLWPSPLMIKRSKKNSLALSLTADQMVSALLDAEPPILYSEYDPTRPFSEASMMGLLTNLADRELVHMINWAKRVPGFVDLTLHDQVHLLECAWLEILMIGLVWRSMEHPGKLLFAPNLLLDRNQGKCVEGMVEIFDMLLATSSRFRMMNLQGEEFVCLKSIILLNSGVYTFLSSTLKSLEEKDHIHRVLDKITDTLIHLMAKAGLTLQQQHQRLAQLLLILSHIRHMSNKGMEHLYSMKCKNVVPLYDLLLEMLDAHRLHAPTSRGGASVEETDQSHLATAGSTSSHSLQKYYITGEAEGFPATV

## C[C@]12CC[C@@H]3c4ccc(O)cc4CC[C@H]3[C@@H]1[C@@H](O)[C@@H](O)[C@@H]2O [E4, 1,3,5(10)-estratrien-3,15α,16α,17β-tetrol]
[1]
  number of malignant tumours: declines as a function of increasing the daily oral estetrol dose
Human ERα
  Relative ERα/ERβ preference: 400%
[2]; E4 […] vs tamoxifen 3 mg/kg/day orally
  preventing growth of DMBA-induced tumours, compared with tamoxifen: as effective as tamoxifen
[3]
  in vivo estrogenicity in preventing bone resorption, prevention of hot flushing and vaginal cornification: equipotency
  potency in agonistic models of preventing bone resorption, prevention of hot flushing and vaginal cornification: equipotency

## CC/C(=C(\c1ccccc1)c1ccc(OCCN(C)C)cc1)c1ccccc1 [tamoxifen]
[4]
  anti-tumour treatment in the DMBA model: effective anti-tumour treatments
[2]; tamoxifen 3 mg/kg/day orally, 8 weeks
  development of mammary tumours: inhibiting the development of mammary tumours

## C[C@]12CC[C@@H]3c4ccc(O)cc4CC[C@H]3[C@@H]1CC[C@@H]2O [E2, 17β-estradiol]
[5]
  protection in the DMH model: confers protection

## C#C[C@]1(O)CC[C@H]2[C@@H]3CCc4cc(O)ccc4[C@H]3CC[C@@]21C [EE, 17α-ethinylestradiol]
[3]
  in vivo estrogenicity in preventing bone resorption, prevention of hot flushing and vaginal cornification: equipotency
  potency in agonistic models of preventing bone resorption, prevention of hot flushing and vaginal cornification: equipotency
